# Reference: US20200330420A1, “LONG CHAIN FATTY ACID FORMULATIONS AND THEIR USE IN INHIBITING SALMONELLA INFECTION” (priority 2019, published 2020)
# Experiments:
# hilA expression = assay: Luciferase assay, hilA::luxCDABE reporter fusion; assay type: cell-based
# Source text: (§1) Strains. Salmonella enterica subsp. enterica serovar Typhimurium 14028s, and mutants thereof, were used throughout. Deletion mutants were constructed as previously described (K. A. Datsenko et al., PNAS USA, 97(12), 6640-6645, 2000). Briefly, PCR fragments of kanamycin and chloramphenicol resistance genes containing 40 base pair homology extensions flanking the gene of interest were generated using pKD4 and pKD3 plasmids. The PCR fragments were transformed into a strain expressing λ Red recombinase. Loss of the gene of interest was confirmed using PCR. Unmarked mutants were generated using a helper plasmid pCP20 carrying a gene encoding the FLP recombinase. Marked deletions and constructs were transferred using bacteriophage P22 transduction (N. L. Sternberg et al., Methods Enzymol., 204, 18-43, 1991).
# Luciferase assays. Strains carrying luxCDABE reporter fusions were grown overnight in LB with the necessary antibiotics. Overnight cultures were diluted 100-fold into M9 minimal medium with glucose, antibiotics and 1 mM nonanoic acid (added to repress SPI invasion gene expression to eliminate background luminescence), and grown overnight. The cultures were washed three times with PBS. Bacteria were inoculated at a starting OD600 of 0.02 into 150 μL of LB containing 100 mM MOPS pH 6.7, the necessary antibiotics and compounds to be tested, in a sealed black-walled 96 well plate. Luminescence was measured every 30 minutes for 24 hours using a Biotek Synergy™ H1 microplate reader.
# sopB expression = assay: Luciferase assay, sopB::luxCDABE reporter fusion; assay type: cell-based; conditions: ΔhilD mutant, rtsA under tetracycline-inducible promoter; 20 μM; FIG. 4A
# Source text: as §1
# Luciferase assays. Strains carrying luxCDABE reporter fusions were grown overnight in LB with the necessary antibiotics. Overnight cultures were diluted 100-fold into M9 minimal medium with glucose, antibiotics and 1 mM nonanoic acid (added to repress SPI invasion gene expression to eliminate background luminescence), and grown overnight. The cultures were washed three times with PBS. […] Luminescence was measured every 30 minutes for 24 hours using a Biotek Synergy™ H1 microplate reader.
# HilD [1] = biological target: T1, HilD (Salmonella typhimurium, UniProt P0CL08); assay: Electrophoretic mobility shift assay, HilD binding to hilA promoter DNA; design: 6xHis-NusA (followed by an HRV 3C protease site) (N, cleaved yes); made in house; host or cells: E. coli BL21(DE3), vector pCAV4; conditions: FIG. 7
# RtsA = assay: Electrophoretic mobility shift assay, RtsA binding to hilA promoter DNA; design: species or system Salmonella; conditions: FIG. 7
# Procedure: (§2) Electrophoretic mobility shift assays (EMSAs). EMSAs were performed as previously described (Y. A. Golubeva et al., M Bio, 7(1), 2016). Briefly, 10 nM of hilA promoter DNA was mixed with 150 μM HilD, HilC or RtsA in a binding buffer containing 20 mM KCl, 1% glycerol, 1 mM DTT, 0.04 mM EDTA, 0.05% Tergitol™ NP-40 and 20 mM HEPES, pH 7.3. cis-2-hexadecenoic acid was tested at concentrations of […] Binding was performed at room temperature for 20 minutes. Samples were separated on 6% Novex® TBE DNA retardation gels, and DNA was stained using SYBR® green (Invitrogen).
# HilD [2] = biological target: T1, HilD; assay: HilD half-life assay (western blot of HilD-3xFLAG); assay type: cell-based; design: expressed in transfected cells; host or cells: Salmonella Typhimurium 14028s derivative carrying PtetRA-hilD-3xFLAG, with Lon present or absent; conditions: Lon mutant (absence of Lon); 20 μM; FIG. 5A
# HilC = HilC (Salmonella typhimurium, UniProt P0CL09); assay: Electrophoretic mobility shift assay, HilC binding to hilA promoter DNA; conditions: FIG. 7
# Procedure: as §2
# [3] = chain length comparison, FIG. 1E
# [4] = hilD only: ΔrtsA ΔhilC, hilD under tetracycline-inducible promoter, 20 μM, FIG. 4C
# [5] = 10, 25, 50 and 75 μM fatty acid
# T1 sequence (P0CL08 whole entry): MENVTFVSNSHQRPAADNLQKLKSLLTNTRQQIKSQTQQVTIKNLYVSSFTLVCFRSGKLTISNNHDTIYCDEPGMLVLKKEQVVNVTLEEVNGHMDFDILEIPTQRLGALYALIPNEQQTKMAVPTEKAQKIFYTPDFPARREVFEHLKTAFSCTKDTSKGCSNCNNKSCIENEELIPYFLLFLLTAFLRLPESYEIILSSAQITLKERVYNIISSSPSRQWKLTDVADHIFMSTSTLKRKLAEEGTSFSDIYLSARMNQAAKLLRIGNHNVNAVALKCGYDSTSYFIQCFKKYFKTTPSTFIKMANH
# Chain of HilC (P0CL09 whole entry): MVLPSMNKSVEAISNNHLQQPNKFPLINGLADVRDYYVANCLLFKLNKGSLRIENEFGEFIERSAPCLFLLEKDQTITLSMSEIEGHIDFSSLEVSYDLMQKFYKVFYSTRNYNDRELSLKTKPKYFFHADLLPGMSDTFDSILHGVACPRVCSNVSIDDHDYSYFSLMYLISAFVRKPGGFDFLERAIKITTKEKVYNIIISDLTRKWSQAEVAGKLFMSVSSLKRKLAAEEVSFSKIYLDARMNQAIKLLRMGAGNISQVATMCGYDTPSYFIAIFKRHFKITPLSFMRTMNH
structure (smiles),measurement,setting,value
"CCCCCCCCCCCCC/C=C\C(=O)OC [cis-2-hexadecenoic acid methyl ester, reference compound]",repression of hilA expression,"hilA expression; 20 μM methyl ester, FIG. 2A",not to significantly repress hilA expression
CCCCCCC/C=C\C(=O)O [cis-2-decenoic acid],reduction of hilA expression,hilA expression; [3],28%
CCCCCCCCCCCCCCCCC/C=C\C(=O)O [cis-2-eicosenoic acid],reduction of hilA expression,hilA expression; [3],10 fold
same,repression of hilA expression,hilA expression; [4],3 fold
"CCCCCCCCCCCCC/C=C/C(=O)O [trans-2-hexadecenoic acid, reference compound]",less potent in repressing hilA than the cis-isomer,"hilA expression; FIG. 1A, 20 μM fatty acids per legend",31 fold
"CCCCCCCC/C=C\CCCCCCCC(=O)O [oleic acid, cis-9-octadecenoic acid, reference compound]",repression of hilA expression,hilA expression; [4],1.2 fold
"CCCCCCCCCCCCC/C=C\C(=O)O [c2-HDA, Cis-2-hexadecenoic acid]",repression of sopB expression,sopB expression,11 fold
same,binding of HilD to the hilA promoter,"HilD [1]; 20 μM fatty acid, 10 nM hilA promoter DNA",completely inhibited from binding hilA promoter DNA
same,binding of HilD to the hilA promoter,"HilD [1]; 1, 2, 5 and 10 μM fatty acid",partially
same,binding of RtsA to the hilA promoter,RtsA; 100 μM fatty acid,prevented binding to the hilA promoter
same,binding of RtsA to the hilA promoter,RtsA; [5],partially
same,repression of hilA expression,"hilA expression; 1 μM, FIG. 1B",80 fold
same,reduction of hilA expression,hilA expression; [3],159 fold
same,reduction of hilA expression,"hilA expression; hilC only (tetracycline-inducible), null hilD and rtsA, FIG. 6B",20 fold
same,repression of hilA in a hilD mutant,"hilA expression; hilD mutant, FIG. 4A",modest repression
same,repression of hilA expression,hilA expression; [4],78 fold
same,reduction of hilA expression,"hilA expression; rtsA only (tetracycline-inducible), null hilD and hilC, FIG. 6A",13 fold
same,repression of hilA expression,"hilA expression; Δlon mutation, 20 μM, FIG. 5B",continued to repress hilA expression
same,effect on HilD stability,HilD [2],no effect on its stability
same,binding of HilC to the hilA promoter,HilC; 100 μM fatty acid,prevented binding to the hilA promoter
same,binding of HilC to the hilA promoter,HilC; [5],partially
"CCCCCCCCCCCCCCCCC/C=C\C(=O)OC [cis-2-eicosenoic acid methyl ester, reference compound]",repression of hilA expression,"hilA expression; 40 μM methyl ester, FIG. 2B",not to significantly repress hilA expression
CCCCCCCCC/C=C\C(=O)O [cis-2-dodecenoic acid],reduction of hilA expression,hilA expression; [3],3 fold
